Source: US20060165603A1, “Solubilisation of drugs in hfa propellant by means of emulsions” (Chiesi Farmaceutici S.p.A., priority 2002, published 2006)
Where a name gives a salt, the structure may show the parent alone.

Tests used:
[1] = Microemulsion formation / appearance of formulations in HFA227; type: physicochemical; conditions: 10% surfactant, 20% EtOH, HFA 227, 5% w/w water
Method: (§1) Samples were prepared in clear glass formulation vials. The surfactants were added first followed by water then the other components of the formulation were added and the weight of bottle recorded after each addition. Final compositions were calculated as percentage w/w. Valves were crimped onto plastic-coated bottles or anodized aluminium cans before being placed in a sonicator for 5 minutes to allow as much dissolution of surfactants in the water as possible. The propellant was filled through the valve and the final weight of the packaged formulation recorded. In the case of the emulsions the packaged formulations were either shaken vigorously by hand or gently warmed in the hand (sonication where necessary) to induce an emulsion. For the microemulsion formulations the same method was used except the ethanol was added just before crimping and no sonication was required after HFA addition as a clear formulation was obtained immediately.
The following table 3 lists the various microemulsion formulations prepared with Synperonic L64, AOT, and the fluorinated surfactant Zonyl FSN. L64 and Zonyl FSN produced clear systems.

[2] = Emulsion formation of pMDI formulations in HFA propellant (visual); type: physicochemical; conditions: 5% w/w water, 25 μg/50 μl drug; for Comment (emulsion formation): HFA227
Method: as §1, with “emulsion.” for “emulsion. For the microemulsion formulations the same method was used except the ethanol was added just before crimping and no sonication was required after HFA addition as a clear formulation was obtained immediately.”
The surfactants used for these formulations are a Span85/AOT blend and the Synperonics L64.

| Compound | Comment (microemulsion formulation appearance) [1] | Comment (emulsion formation) ([2]; 0.1% Span85, 0.01% AOT) | Comment (emulsion formation) ([2]; 0.1% Span85, 0.05% AOT) | Emulsion formation, HFA 134a ([2]; 0.1% Synperonic L64) | Emulsion formation, HFA 134a ([2]; 0.5% Synperonic L64) | Emulsion formation, HFA 227 ([2]; 0.5% Synperonic L64) | Emulsion formation, HFA 134a ([2]; 1% Synperonic L64) | Emulsion formation, HFA 227 ([2]; 1% Synperonic L64) | Emulsion formation, HFA 227 ([2]; 0.1% Synperonic L64) | Comment (emulsion formation) ([2]; 0.4% Span85, 0.05% AOT) |
| --- | --- | --- | --- | --- | --- | --- | --- | --- | --- | --- |
| sodium dioctylsulpho-succinate [AOT] | Slight cloud, one apparent phase |  |  |  |  |  |  |  |  |  |
| CCC(=O)Oc1ccc2c(c1)CC[C@@H]1[C@@H]2CC[C@]2(C)[C@@H](OC(=O)CC)CC[C@@H]12 [Oestradiol Dipropionate, oestradiol dipropionate] |  | Emulsion | Emulsion | Emulsion | Emulsion | Immediate emulsion | Emulsion | Immediate emulsion |  |  |
| CN1CCc2cccc3c2[C@H]1Cc1ccc(O)c(O)c1-3 [Apomorphine Hydrochloride, apomorphine hydrochloride] |  |  | Emulsion | Emulsion | Emulsion | Emulsion | Emulsion | Emulsion | Emulsion | Emulsion |
